Patent publication US20070082920A1, “NAD+-dependent DNA ligase inhibitors” (priority 2005, published 2007)

Tests used:
[1] = tested on: Moraxella catterhalis ATCC 25238; assay: MIC, broth microdilution (CLSI), M. catarrhalis; assay type: cell-based
Method: (§1) The compounds of Formulas 1-VIII were evaluated as inhibitors of NAD+-dependent DNA ligase inhibitors. Their antimicrobial activity was evaluated against bacteria using the broth microdilution method as described by Clinical Laboratory Standards Institute (formerly NCCLS). Activity was assessed against the following bacterial strains: Staphylococcus aureus ATCC 29213, Streptococcus pneumoniae ATCC 49619, Escherichia coli ATCC 25922, E. coli CGSC 5633 (ToIC mutant), Haemophilus influenzae ATCC 49766, Streptococcus pyogenes ATCC 19615, Moraxella catterhalis ATCC 25238, Enterococcus faecalis ATCC 29212. The lowest concentration of compound which inhibited visual growth of each bacterium, the minimum inhibitory concentration (MIC), was determined.

[2] = tested on: E. coli CGSC 5633 (ToIC mutant); assay: MIC, broth microdilution (CLSI), E. coli CGSC 5633; assay type: cell-based, Escherichia coli; design: unit not given beside the values
Method: as §1

[3] = Acute toxicity, Alamar blue cell viability, NIH 3T3; assay type: cell-based; conditions: mouse
Method: (§2) Acute toxicity was assessed against two mammalian cell lines, HepG2 (human hepatocyte) and NIH 3T3 (mouse fibroblast). Cell viability was measured by an in vitro assay using Alamar blue. The concentration of compound which inhibited 50% of the cell growth (LC50) was determined.

[4] = tested on: Streptococcus pyogenes ATCC 19615; assay: MIC, broth microdilution (CLSI), S. pyogenes; assay type: cell-based
Method: as §1

[5] = tested on: Escherichia coli ATCC 25922; assay: MIC, broth microdilution (CLSI), E. coli ATCC 25922; assay type: cell-based
Method: as §1

[6] = Acute toxicity, Alamar blue cell viability, HepG2; assay type: cell-based; conditions: human
Method: as §2

[7] = tested on: Enterococcus faecalis ATCC 29212; assay: MIC, broth microdilution (CLSI), E. faecalis; assay type: cell-based; design: unit not given here
Method: as §1

[8] = tested on: Staphylococcus aureus ATCC 29213; assay: MIC, broth microdilution (CLSI), S. aureus; assay type: cell-based; conditions: lowest concentration inhibiting visual growth
Method: as §1

[9] = tested on: Streptococcus pneumoniae ATCC 49619; assay: MIC, broth microdilution (CLSI), S. pneumoniae; assay type: cell-based
Method: as §1

[10] = tested on: Haemophilus influenzae ATCC 49766; assay: MIC, broth microdilution (CLSI), H. influenzae; assay type: cell-based; design: unit not given beside the values
Method: as §1

Structure (SMILES)	MIC M. catarrhalis [1]	MIC E. coli CGSC 5633 [2]	CC50 [3] [µM]	MIC S. pyogenes [4]	MIC E. coli ATCC 25922 [5]	CC50 [6] [µM]	MIC E. faecalis [7]	MIC S. aureus ATCC 29213 [8]	MIC S. pneumoniae [9]	MIC H. influenzae [10]
COc1cc(CN(C)c2nc3nc(N)nc(N)c3c(C)c2Cc2ccccc2)cc(OC)c1 [II-a, 2,4-diamino-5-methyl-6-benzyl-7-[(3,5-dimethoxybenzyl)methylamino]-pyrido[2,3-d]pyrimidine]	4	<0.125	5.57	4	>128	12.8	<0.125	4	0.125	>128
Cc1c(C(C)C)c(NCc2cc(F)cc(C(F)(F)F)c2)nc2nc(N)nc(N)c12 [II-f]	4			8	128		2	8	8	32
Cc1cc(NCc2cccc(C(F)(F)F)c2F)nc2nc(N)nc(N)c12 [III-g]	4	0.5		4	16		2	16	2	32
Cc1cc(NCc2ccc(C(F)(F)F)cc2F)nc2nc(N)nc(N)c12 [III-h]	4	0.5		4	16		4	16	4	16
Cc1cc(NCc2ccc(F)cc2C(F)(F)F)nc2nc(N)nc(N)c12 [III-j]	4	0.25		4	32		1	16	1	16
Cc1cc(NCc2cc(C(F)(F)F)ccc2F)nc2nc(N)nc(N)c12 [III-k]	16			16	32		0.5	16	2	32
Cc1cc(NCc2ccc3c(c2)OCO3)nc2nc(N)nc(N)c12 [III-m]	16	0.5		8	64		2	64	2	8
COc1ccc(CN(C)c2cc(C)c3c(N)nc(N)nc3n2)cc1OC [IV-b]	8	0.125	13.2		64	> 28.2		64	2	16
Nc1nc(N)c2c3c(c(N4Cc5ccccc5C4)nc2n1)CCCC3 [VII-c]	4			16	>128		1	16	8	>128
Nc1nc(N)c2c3c(c(NCc4cc(F)cc(F)c4)nc2n1)CCCC3 [VII-d]	16			8	64		8	32	8	32
COc1cc(CN(C)c2nc3nc(N)nc(N)c3c3c2CCCC3)cc(OC)c1 [VII-e]	4	1		2	64		<0.1250	32	0.5	16
